Source: US7425579B2, “Methods for inhibiting activity of polyamine transporters” (Universite Laval, priority 1998, dated 2008)

Legend:
T-47D cells = experiment: Effect of inhibitors on T-47D cell proliferation (DNA content); format: cell-based, human; conditions: T-47D cells, 9 d
Procedure: (§1) FIGS. 3A and 3B are graphs showing the effect compounds used in a method according preferred embodiment of the present invention, on cell proliferation. In particular, they relate to the effect of selected BSD and BNSD derivatives on T-47D cell proliferation. Cells were incubated for 9 d with the indicated concentrations of BSD-2 (∘), BNSD-4 (●), BSD-4 (□), BNSD-6 (▪), BSD-10 (Δ), BSD-4-ene (▴) and BSD-4-yne (▾) in medium containing 1 mM aminoguanidine, and total DNA content per culture was then determined. B, Effect of BNSD-X (N,N,N′,N′-tetrakis-(3-aminopropyl)-p-diaminoxylene) on cell proliferation in various mammalian cell lines. Jurkat (∘), LAN-1 (●), L1210 (□), T-47D (▪), ZR-75-1 (Δ) and MDA-MB-231 (▴) cells were grown to near confluency or saturation (for 4 to 11 d according to the cell line considered) with the indicated concentrations of BNSD-X in the presence of 1 mM aminoguanidine, and total DNA content per culture was then determined. Data are given as the mean±SD for triplicate cultures from one out of at least two identical experiments;
FIGS. 4A and 4B are graphs showing how compounds used in a method according to a preferred embodiment are differentially sensitive to degradation by BSAO (bovine serum amine oxidase). In particular, T-47D cells were incubated for 9 d with the indicated concentrations of BSD-X (∘), BNSD-X (●), BSD-3 (□) or BNSD-3 (▪) in the absence (A) or presence of 1 mM aminoguanidine (B), and total DNA content per culture was then determined. Data are presented as the mean±SD for triplicate cultures from one representative experiment;
The effect of transport inhibitors on cell proliferation was evaluated by determination of cell number (L1210, Jurkat) using electronic sizing with a Model ZM Coulter counter (Coulter Electronics, Hialeah, Fla.), or DNA content per culture (for all other cell lines) with the 3,5-diaminobenzoic acid assay. […] Cytotoxicity of the inhibitors was determined in the presence or absence of aminoguanidine, and was confirmed by a trypan blue exclusion assay.

[1] = tested on: Jurkat, LAN-1, L1210, T-47D, ZR-75-1 and MDA-MB-231 cells; experiment: Effect of BNSD-X on cell proliferation in various mammalian cell lines; format: cell-based; conditions: 1 mM aminoguanidine; 4 to 11 d
Procedure: as §1
The effect of transport inhibitors on cell proliferation was evaluated by determination of cell number (L1210, Jurkat) using electronic sizing with a Model ZM Coulter counter (Coulter Electronics, Hialeah, Fla.), or DNA content per culture (for all other cell lines) with the 3,5-diaminobenzoic acid assay. […]

[2] = tested on: polyamine transport system; experiment: Time course of [3H]spermidine accumulation in ZR-75-1 cells; format: cell-based, human; conditions: after 8 h
Procedure: In particular, exponentially growing T-47D (A) or ZR-75-1 cells (B and C) were transferred to serum-free medium containing 5 μM [^3H]spermidine, and either 200 μM cycloheximide (CHX) (●), 100 μM BNSD-X (□), CHX plus BNSD-X (▪), or vehicle only (∘). Cells were incubated for the time intervals indicated prior to harvesting for detrmination of total intracellular radioactivity. ZR-75-1 cells were either pre-incubated for 48 h in the absence (panel B) or presence of 1 mM DFMO (panel C) prior to the experiment shown; DFMO was also included during the labeling period in the appropriate group. Data are presented as the mean±SD for triplicate cultures from one representative experiment;
The effect of BNSD-X on the time course of [^3H]spermidine accumulation was determined in ZR-75-1 and T-47D cells pre-incubated in the presence or absence of DFMO before addition of radioactive substrate and the transport inhibitor. Subgroups of cell cultures were also treated with cycloheximide in order to prevent the polyamine-dependent induction of ODC antizyme, which rapidly down-regulates polyamine transport activity through an unknown mechanism (Lessard et al. (1995) J. Biol. Chem. 270, 1685-1694; Coffino et al. (2001) Nat Rev Mol Cell Biol. 2:188-194). […]

CHO-K1 cells = experiment: Determination of intracellular polyamine contents in CHO-K1 cells; format: cell-based, Chinese hamster
Procedure: At the indicated time, cells were harvested for the determination of putrescine (A), spermidine (B) and spermine contents (C). Data are presented as the mean±SD for triplicate cultures from one representative experiment; […] At the indicated time intervals, medium was removed, cell monolayers were rinsed twice: with 10 ml of ice-cold Ca^2+/Mg^2+-free phosphate-buffered saline (PBS) (2.7 mM KCl, 1.5 mM KH2PO4, 8.1 mM Na2HPO4, 137 mM NaCl), and cells were harvested by low-speed centrifugation (2400 g for 5 min at 4° C.). […] Polyamine content was then determined by ion-pair reverse phase HPLC with fluorometric detection after post-column derivatization with o-phthaldialdehyde as described (U.S. Pat. No. 6,083,496). […] Pat. No. 6,083,496).

CD-1 mice = experiment: Chronic toxicity of BNSD-X, 1% in drinking water for 14 d; format: in vivo; conditions: 1% (w/v) in drinking water
Procedure: To assess the relative toxicity of BNSD-X, the drug was administered as a 1% (w/v) solution in the drinking water to CD-1 mice with ad libitum access for 14 d. Mice were weighed every other day during the experiment. At the end of the experiment, mice were sacrificed, and organs (kidneys, liver, and spleen) were immediately weighed. Organs were then saved in 10% formalin for morphological examination by an in-house pathologist at the CHUL Research Center (Quebec City, Canada). Acute and subacute oral toxicity of BNSD-X was also separately determined by administering the drug by gavage (0-5 g/kg body weight).
The chronic toxicity of BNSD-X was next evaluated by allowing CD-1 mice to drink a 1% (w/v) solution of the drug for 14 d, and then sacrificing animals for the histological examination of the liver, kidneys and spleen.

## NCCCN(CCCN)Cc1ccc(CN(CCCN)CCCN)cc1 [28a, N,N,N′,N′-tetrakis-(3-aminopropyl)-p-diaminoxylene]
T-47D cells; 1 mM aminoguanidine
  effect of aminoguanidine addition on the cytotoxicity of the dimer: abolished most of the cytotoxicity
T-47D cells; BSAO active
  cytotoxicity in the absence of aminoguanidine: considerably more cytotoxic than their spermidine-like homologs
[1]
  effect on proliferation of a panel of mammalian cell lines: remarkably inert
[2]; BNSD-X:spermidine 20:1
  inhibition of spermidine accumulation, without cycloheximide: 65%
[2]; BNSD-X:spermidine 20:1, 200 μM cycloheximide
  inhibition of spermidine accumulation, with cycloheximide: 90%
CHO-K1 cells; 100 μM, over the first 2 days of incubation
  reduction of intracellular spermidine content by BNSD-X alone: about 50%
CHO-K1 cells; single agent
  effect on intracellular putrescine content: quickly led to putrescine depletion
CHO-K1 cells; up to 4 days
  effect on intracellular spermine content: no significant effect on spermine content
CD-1 mice
  behavior and general body appearance: no incidence on the behavior nor general body appearance of the animals
CD-1 mice; light microscopy
  histological morphology of the liver, kidney and spleen: no observable differences
